Assay results published in BindingDB's records for doi:10.7270/Q2B27SRF (Broad Institute, 2010).

Biological target: Serine/threonine-protein kinase 33 (Homo sapiens, UniProt Q9BYT3)
Assay: STK33 kinase inhibitors, dose response, biochemical, luminescence, cell-free, retest (AID 2821)

Chain of Serine/threonine-protein kinase 33 (Q9BYT3 whole entry): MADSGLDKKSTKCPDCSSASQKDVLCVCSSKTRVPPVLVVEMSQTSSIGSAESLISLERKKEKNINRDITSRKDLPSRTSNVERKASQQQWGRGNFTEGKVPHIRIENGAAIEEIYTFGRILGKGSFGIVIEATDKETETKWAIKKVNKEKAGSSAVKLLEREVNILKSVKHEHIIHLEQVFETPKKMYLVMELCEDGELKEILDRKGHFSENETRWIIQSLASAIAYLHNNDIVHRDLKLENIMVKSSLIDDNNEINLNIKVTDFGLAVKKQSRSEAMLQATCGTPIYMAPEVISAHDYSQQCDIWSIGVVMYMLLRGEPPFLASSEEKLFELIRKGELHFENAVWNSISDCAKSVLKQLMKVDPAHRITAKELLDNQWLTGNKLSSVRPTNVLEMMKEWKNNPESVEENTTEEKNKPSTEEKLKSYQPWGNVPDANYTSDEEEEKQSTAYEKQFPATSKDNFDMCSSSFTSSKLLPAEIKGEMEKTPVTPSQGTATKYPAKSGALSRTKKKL

SMILES | EC50 [µM]
CCOc1ccc(-c2cc(CCCC(=O)NCCCOC)no2)cc1 [4-[5-(4-ethoxyphenyl)-1,2-oxazol-3-yl]-N-(3-methoxypropyl)butanamide] | > 120
Nc1c(C(=O)O)ccc2c1C(=O)c1ccccc1C2=O | 22.2
CCOc1ccc(-c2ccc(SC)nn2)cc1 [3-(4-ethoxyphenyl)-6-(methylthio)pyridazine] | > 120
COc1cccc(-c2onc3ccc(C(=O)/C=C/N(C)C)cc23)c1 [MLS001165915] | 12
O=C(c1ccc2c3n(nc2c1)-c1ccccc1CO3)N1CCCCC1 [5H-indazolo[2,3-a][3,1]benzoxazin-9-yl(piperidin-1-yl)methanone] | > 120
COc1cc(C=CC(=O)CC(=O)C=Cc2ccc(O)c(OC)c2)ccc1O | 0.71
O=C1NCCCc2c1oc1ccc(O)cc21 [7-hydroxy-2,3,4,5-tetrahydro-[1]benzofuro[2,3-c]azepin-1-one] | 3.71
COc1ccccc1NC(=O)Nc1ncccc1C [MLS000072334] | 7.93
O=C(O)Cn1cc(C=c2sc3nc4ccccc4n3c2=O)c2ccccc21 [SMR000298358] | 14.2
Cc1cc(O)ccc1NS(=O)(=O)c1ccc2c3c(cccc13)C(=O)N2 [N-(2-methyl-4-oxidanyl-phenyl)-2-oxidanylidene-1H-benzo[cd]indole-6-sulfonamide] | 19.2
Cc1c(/C=C/C(=O)c2ccc(O)cc2)cnn1C [MLS000578554] | 22.2
COc1cc(C(=O)NC2CCN(C)CC2)ccc1Nc1ncc2c(n1)N(C1CCC(O)CC1)CCC(=O)N2C (centres undefined) [MLS002232305] | 8.38
CN1CCN(C=NC2=NN(c3cccc(C(F)(F)F)c3)CC2)CC1 [MLS000418536] | > 120
O=C1c2ccccc2C(=O)C1c1ccccn1 | 5.49
O=c1c(-c2c(O)cc(O)c3c2O[C@H](c2ccc(O)cc2)CC3)c(-c2ccc(O)cc2)oc2cc(O)cc(O)c12 [3-[(2S)-5,7-dihydroxy-2-(4-hydroxyphenyl)-3,4-dihydro-2H-1-benzopyran-8-yl]-5,7-dihydroxy-2-(4-hydroxyphenyl)-1-benzopyran-4-one] | > 120
CC(C)n1cnc2c(Nc3cccc(Cl)c3)nc(NCCCO)nc21 | 1.84
O=C(NCCCO)c1cc2c([nH]c3ccccc32)c(-c2ccccc2)n1 [MLS001214182] | 23.4
c1cncc(C2Nc3ccccc3-c3nc4ccccc4n32)c1 (centres undefined) [MLS000098034] | 27.1
CCOC(=O)Cc1nnc(NC(=O)COc2ccc(C)cc2)s1 [MLS000082525] | > 120
COc1cc(C)c2c(c1C=O)Oc1c(c(C)c(O)c3c1C(O)OC3=O)OC2=O (centres undefined) [1,4-Dihydroxy-10-methoxy-5,8-dimethyl-3,7-dioxo-1,3-dihydro-7H-benzo[e]furo[3',4':3,4]benzo[b][1,4]dioxepine-11-carbaldehyde] | 32
Cc1ccc(NC(=O)c2cccc(C(=O)Nc3ccc(C)cc3C(=O)O)c2)c(C(=O)O)c1 [The compound has not trivial name.] | 21.8
CCCCCCCCCC[N+](C)(C)CC/C=C1/c2ccccc2Sc2ccc(Cl)cc21 [[(3Z)-3-(2-chloro-9-thioxanthenylidene)propyl]-decyl-dimethylammonium;bromide] | > 120
Cc1ccc(NC(=O)COC(=O)c2cc(Cl)ccc2Cl)c(Br)c1 [SMR000259824] | > 120
C/C=C/Cn1c(SCc2ccc(Cl)cc2)nc2c1c(=O)[nH]c(=O)n2C [7-[(E)-but-2-enyl]-8-[(4-chlorophenyl)methylsulfanyl]-3-methylpurine-2,6-dione] | > 120
COc1cc(N=CC2C(=O)Nc3ccccc32)cc(OC)c1OC (centres undefined) | 4.93
CCCn1c(NC(=O)c2cccc(S(=O)(=O)N3CCCC3)c2)nc2ccccc21 [MLS000057540] | 0.769
Cc1cccc(C(=N)NOC(=O)c2ccc3c(c2)OCO3)c1 [MLS000579340] | 37.3
CN1CCc2c(sc3c2c(=O)n(-c2ccccc2)c2n[nH]c(=S)n32)C1 [MLS000558136] | > 120
S=C(NCc1ccccc1)Nc1ccc2cn[nH]c2c1 [1-(1H-indazol-6-yl)-3-(phenylmethyl)thiourea] | > 120
